Source: ChEMBL document CHEMBL5131480, “Cinnamic acid derivatives linked to arylpiperazines as novel potent inhibitors of tyrosinase activity and melanin synthesis” (Eur J Med Chem, 2022)
Calls of active or inactive are those of the source. No cut-off for these calls is given here.

Experiments:
Mushroom tyrosinase = Mushroom tyrosinase (Agaricus bisporus, UniProt O42713+Q00024+C7FF04+C7FF05); assay: Inhibition of mushroom tyrosinase using L-DOPA as substrate preincubated with substrate for 10 mins followed by addition of enzyme and measured for 5 mins by spectrophotometric analysis
[1] = Acute toxicity in zebra fish embryos assessed as bradycardia at 25 to 100 uM measured after 24 hrs by stereomicroscope analysis; parameters: species or system Danio rerio; details: zebrafish, dose 25-100 µM
[2] = target: Mushroom tyrosinase (Agaricus bisporus) (UniProt O42713+Q00024+C7FF04+C7FF05); assay: Potency index, ratio of kojic acid IC50 to test compound IC50 for mushroom tyrosinase by spectrophotometric analysis
[3] = Cytotoxicity against human A-375 cells assessed as cell viability at 20 uM incubated for 72 hrs by MTT assay relative to control; type: toxicity, cell-based; details: read-out: Activity
in vitro [4] = details: human, A-375 cells
Description: Cytotoxicity against human A-375 cells assessed as reduction in cell viability incubated for 72 hrs by MTT assay

[5] = Acute toxicity in zebra fish embryos assessed as strong malformation embryos at 25 to 100 uM measured after 48 hrs by stereomicroscope analysis; parameters: species or system Danio rerio; details: zebrafish, dose 25-100 µM
in vitro [6] = details: human, A-375 cells; remark: listed apart in the source
Description: Cytotoxicity against human A-375 cells assessed as cell viability at 50 uM incubated for 72 hrs by MTT assay relative to control

[7] = Acute toxicity in zebra fish embryos assessed as lack of detachment of tail bud from yolk sac at 25 to 100 uM measured after 24 to 48 hrs by stereomicroscope analysis; parameters: species or system Danio rerio, Embryo; details: zebrafish, dose lower 25 µM, time lower 24 hrs, dose upper 100 µM, time upper 48 hrs
[8] = target: T1, Tyrosinase (Homo sapiens) (UniProt P14679); assay: Inhibition of tyrosinase activity in alpha-MSH stimulated human A-375 cells using L-DOPA as substrate at 20 uM by microplate reader analysis; type: cell-based
T1 sequence (whole entry): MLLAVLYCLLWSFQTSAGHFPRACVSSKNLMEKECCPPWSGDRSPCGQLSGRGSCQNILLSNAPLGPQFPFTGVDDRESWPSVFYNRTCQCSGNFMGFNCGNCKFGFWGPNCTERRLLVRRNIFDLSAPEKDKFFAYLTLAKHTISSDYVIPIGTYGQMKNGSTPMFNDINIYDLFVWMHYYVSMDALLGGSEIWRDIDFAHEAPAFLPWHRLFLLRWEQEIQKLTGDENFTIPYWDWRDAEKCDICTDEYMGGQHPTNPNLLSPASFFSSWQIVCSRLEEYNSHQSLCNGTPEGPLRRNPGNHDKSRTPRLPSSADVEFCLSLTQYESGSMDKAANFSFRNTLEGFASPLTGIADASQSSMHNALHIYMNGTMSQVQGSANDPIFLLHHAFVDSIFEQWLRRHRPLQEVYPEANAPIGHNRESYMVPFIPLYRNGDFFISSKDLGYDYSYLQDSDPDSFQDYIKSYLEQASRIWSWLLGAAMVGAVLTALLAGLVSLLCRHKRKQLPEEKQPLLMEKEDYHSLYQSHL

[9] = Acute toxicity in zebra fish embryos assessed as lack of somite formation at 25 to 100 uM measured after 24 to 48 hrs by stereomicroscope analysis; parameters: species or system Danio rerio; details: zebrafish, dose lower 25 µM, time lower 24 hrs, dose upper 100 µM, time upper 48 hrs
[10] = Acute toxicity in zebra fish embryos assessed as coagulation of fertilized eggs measured at 25 to 100 uM measured after 24 to 48 hrs by stereomicroscope analysis; parameters: species or system Danio rerio; details: zebrafish, dose lower 25 µM, time lower 24 hrs, dose upper 100 µM, time upper 48 hrs
Danio rerio [11] = species on record: Danio rerio; assay: Anti-melanogenic activity against zebra fish embryos assessed as proportion of embryos showing moderate decrease in melanogenesis at 25 uM measured after 48 hrs by stereomicroscope analysis relative to control; type: functional; parameters: scale not given: the % may be the effect or the level left
Danio rerio [12] = species on record: Danio rerio; assay: Anti-melanogenic activity against zebra fish embryos assessed as proportion of embryos showing profound decrease in melanogenesis at 50 uM measured after 48 hrs by stereomicroscope analysis relative to control; type: functional; parameters: scale not given: the % may be the effect or the level left
[13] = Acute toxicity in zebra fish embryos assessed as lack of heart beat at 25 to 100 uM measured after 24 to 48 hrs by stereomicroscope analysis; type: tissue-based, Danio rerio; details: zebrafish, dose lower 25 µM, time lower 24 hrs, dose upper 100 µM, time upper 48 hrs
Danio rerio [14] = species on record: Danio rerio; assay: Anti-melanogenic activity against zebra fish embryos assessed as proportion of embryos with none to mild moderate decrease in melanogenesis at 50 uM measured after 48 hrs by stereomicroscope analysis relative to control; type: functional; parameters: scale not given: the % may be the effect or the level left
Danio rerio [15] = species on record: Danio rerio; assay: Anti-melanogenic activity against zebra fish embryos assessed as proportion of embryos showing moderate decrease in melanogenesis at 50 uM measured after 48 hrs by stereomicroscope analysis relative to control; type: functional; parameters: scale not given: the % may be the effect or the level left
Danio rerio [16] = species on record: Danio rerio; assay: Anti-melanogenic activity against zebra fish embryos assessed as proportion of embryos showing profound decrease in melanogenesis at 25 uM measured after 48 hrs by stereomicroscope analysis relative to control; type: functional; parameters: scale not given: the % may be the effect or the level left
Danio rerio [17] = species on record: Danio rerio; assay: Anti-melanogenic activity against zebra fish embryos assessed as proportion of embryos with none to mild moderate decrease in melanogenesis at 25 uM measured after 48 hrs by stereomicroscope analysis relative to control; type: functional; parameters: scale not given: the % may be the effect or the level left
[18] = Acute toxicity in zebra fish embryos assessed as coagulation of fertilized eggs at 25 to 100 uM measured after 24 hrs by stereomicroscope analysis; parameters: species or system Danio rerio; details: zebrafish, dose 25-100 µM
[19] = Acute toxicity in zebra fish embryos assessed as lack of detachment of tail bud from yolk sac at 25 to 100 uM measured after 24 hrs by stereomicroscope analysis; parameters: species or system Danio rerio, Embryo; details: zebrafish, dose 25-100 µM
[20] = Acute toxicity in zebra fish embryos assessed as lack of heart beat at 25 to 100 uM measured after 24 hrs by stereomicroscope analysis; type: tissue-based, Danio rerio; details: zebrafish, dose 25-100 µM
[21] = Acute toxicity in zebra fish embryos assessed as strong malformation embryos at 100 uM measured after 48 hrs by stereomicroscope analysis; parameters: species or system Danio rerio; details: zebrafish
[22] = Acute toxicity in zebra fish embryos assessed as lack of somite formation at 25 to 100 uM measured after 24 hrs by stereomicroscope analysis; parameters: species or system Danio rerio; details: zebrafish, dose 25-100 µM
[23] = Acute toxicity in zebra fish embryos assessed as death of organism measured at 25 to 100 uM measured after 24 hrs by stereomicroscope analysis; parameters: species or system Danio rerio; details: zebrafish, dose 25-100 µM
[24] = Acute toxicity in zebra fish embryos assessed as bradycardia at 25 to 100 uM measured after 48 hrs by stereomicroscope analysis; parameters: species or system Danio rerio; details: zebrafish, dose 25-100 µM
[25] = Acute toxicity in zebra fish embryos assessed as pericardial edema and embryonic lethality at 50 uM measured after 24 hrs by stereomicroscopic analysis; parameters: species or system Danio rerio; details: zebrafish
[26] = Acute toxicity in zebra fish embryos assessed as death of organism at 50 uM measured after 48 hrs by stereomicroscope analysis; parameters: species or system Danio rerio; details: zebrafish
[27] = Acute toxicity in zebra fish embryos assessed as alteration in heart functioning at 50 uM measured after 24 hrs by stereomicroscopic analysis; type: tissue-based, Danio rerio; details: zebrafish
[28] = target: T1, Tyrosinase (Homo sapiens); assay: Inhibition of tyrosinase activity in alpha-MSH stimulated human A-375 cells using L-DOPA as substrate at 20 uM by microplate reader analysis relative to control; type: cell-based

Row | Structure (SMILES) | IC50 (Mushroom tyrosinase) [µM] | Ratio IC50 [2] | viability at 72 h, 20 µM [3] [%] | GI50 at 72 h (in vitro [4]) [µM] | viability at 72 h, 50 µM (in vitro [6]) [%] | Activity (Danio rerio [11]) [%] | Activity (Danio rerio [12]) [%] | Activity (Danio rerio [14]) [%] | Activity (Danio rerio [15]) [%] | Activity (Danio rerio [16]) [%] | Activity (Danio rerio [17]) [%] | other results
1 | O=C(/C=C/c1ccc(Cl)cc1)N1CCN(c2ccc(F)cc2)CC1 | 14.09 |  |  |  |  |  |  |  |  |  |  | 
2 | O=C(/C=C/c1ccc([N+](=O)[O-])cc1)N1CCN(c2ccc(F)c(Cl)c2)CC1 | 0.35 | 30 | 98 | > 50 | 85.4 |  |  |  |  |  |  | Activity [1]: Toxic; Activity [5]: 13.3%
3 | COc1cccc(/C=C/C(=O)N2CCN(c3ccc(F)c(Cl)c3)CC2)c1 | 0.25 | 30 | 98 | > 50 | 54 | 0 | 0 | 100 | 0 | 0 | 100 | Activity [7]: Non-Toxic; inhibition [8]: Active; Activity [9]: Non-Toxic; Activity [10]: Non-Toxic; Activity [13]: Non-Toxic
4 | O=C(/C=C/c1cccc([N+](=O)[O-])c1)N1CCN(c2ccc(F)c(Cl)c2)CC1 | 0.16 | 30 | 98 | > 50 | 87.2 | 0 | 0 | 85 | 15 | 0 | 100 | Activity [18]: Non-Toxic; Activity [19]: Non-Toxic; Activity [20]: Non-Toxic; Activity [21]: 6.6%; Activity [22]: Non-Toxic
5 | COc1ccc(Cl)cc1/C=C/C(=O)N1CCN(c2ccc(F)cc2)CC1 | 27.4 |  |  |  |  |  |  |  |  |  |  | 
6 | COc1cccc(/C=C/C(=O)N2CCN(c3ccc(F)cc3)CC2)c1 | 9.96 |  |  |  |  |  |  |  |  |  |  | 
7 | COc1cccc(/C=C/C(=O)N2CCN(c3ccc(F)c(Cl)c3)CC2)c1Cl | 0.12 | 150 | 98 | > 50 | 69.6 | 15 | 20 | 50 | 30 | 0 | 85 | inhibition [8]: Active; Activity [20]: Toxic; Activity [23]: Toxic
8 | COc1ccc(/C=C/C(=O)N2CCN(c3ccc(F)cc3)CC2)cc1N | 17.85 |  |  |  |  |  |  |  |  |  |  | 
9 | O=C(/C=C/c1ccc2c(c1)OCO2)N1CCN(c2cccc(Cl)c2)CC1 | 34.25 |  |  |  |  |  |  |  |  |  |  | 
10 | COc1ccc(/C=C/C(=O)N2CCN(c3ccc(F)c(Cl)c3)CC2)cc1N | 0.53 | 30 | 45 | 16.1 |  | 20 | 30 | 50 | 20 | 0 | 80 | Activity [7]: Non-Toxic; Activity [9]: Non-Toxic; Activity [10]: Non-Toxic; Activity [13]: Non-Toxic
11 | O=C(/C=C/c1ccc(Cl)cc1)N1CCN(c2ccc(F)c(Cl)c2)CC1 | 0.33 | 30 | 98 | 43.8 |  | 0 | 0 | 95 | 5 | 0 | 0 | Activity [24]: Toxic; Activity [18]: Non-Toxic; Activity [19]: Non-Toxic; Activity [20]: Non-Toxic; Activity [22]: Non-Toxic
12 | COc1ccc(/C=C/C(=O)N2CCN(c3cccc(F)c3)CC2)cc1N | > 100 |  |  |  |  |  |  |  |  |  |  | 
13 | COc1ccc(/C=C/C(=O)N2CCN(c3ccc(F)c(F)c3)CC2)cc1[N+](=O)[O-] | 15.47 |  |  |  |  |  |  |  |  |  |  | 
14 | O=C(/C=C/c1cccc([N+](=O)[O-])c1)N1CCN(c2ccc(F)cc2)CC1 | 23.32 |  |  |  |  |  |  |  |  |  |  | 
15 | COc1ccc(/C=C/C(=O)N2CCN(Cc3ccccc3)CC2)cc1N | 55.64 |  |  |  |  |  |  |  |  |  |  | 
16 | COc1ccc(/C=C/C(=O)N2CCN(c3ccc(F)c(F)c3)CC2)cc1N | 6.84 |  |  |  |  |  |  |  |  |  |  | 
17 | COc1ccc(Cl)cc1/C=C/C(=O)N1CCN(c2ccc(F)c(Cl)c2)CC1 | 0.46 | 30 | 98 | > 50 | 72.6 |  |  |  |  |  |  | Activity [25]: 5%; Activity [24]: Toxic; Activity [18]: Non-Toxic; Activity [26]: Toxic; Activity [19]: Non-Toxic; Activity [27]: 95%; Activity [20]: Non-Toxic; Activity [22]: Non-Toxic
18 | COc1ccc(/C=C/C(=O)N2CCN(c3ccc(F)c(Cl)c3)CC2)cc1[N+](=O)[O-] | 0.51 | 30 | 98 | > 50 | 93.5 | 60 | 10 | 45 | 45 | 15 | 25 | inhibition [28]: 60%; Activity [7]: Non-Toxic; Activity [9]: Non-Toxic; Activity [10]: Non-Toxic; Activity [13]: Non-Toxic
